Test results published in patent US20130142831A1, “COMPOUNDS FOR INFLAMMATION AND IMMUNE-RELATED USES” (Synta Pharmaceuticals Corp., priority 2004, published 2013).
Counter-ions that a name gives are not always drawn. One block for each compound: values may come before it.

Experiments:
Assay type in all cases: cell-based
IL-2 production = test: Inhibition of IL-2 production in PHA-activated Jurkat cells; details: Homo sapiens, PHA 2.5 μg/mL, 20 hours
Outline: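 Jurkat cells (0.5 million/well, 1% FBS) were preincubated with compound for 10 min, then stimulated with PHA (2.5 μg/mL final) for 20 h at 37 °C. Supernatant IL-2 was measured by ELISA. IC50 is the concentration giving 50% inhibition of maximal stimulated IL-2 relative to a non-stimulated control.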

IL-10 = test: Cytokine inhibition in PHA-stimulated primary human PBMCs: IL-10; details: PBMC, PBMCs stimulated with PHA, ELISA
Experimental: (§1) Cytokine production was measured using commercially available human ELISA assay kits (from Cell Science, Inc.) following the manufacturers instructions.

IL-13 = test: Cytokine inhibition in PHA-stimulated primary human PBMCs: IL-13; details: PBMCs stimulated with PHA; for IC50: Homo sapiens, PBMC, ELISA
Experimental: as §1

IL-4 = test: Cytokine inhibition in PHA-stimulated primary human PBMCs: IL-4; details: PBMCs stimulated with PHA; for IC50: Homo sapiens, PBMC, ELISA
Experimental: as §1

IL-2 = test: Cytokine inhibition in PHA-stimulated primary human PBMCs: IL-2; details: PBMCs stimulated with PHA; for IC50: Homo sapiens, PBMC, ELISA
Experimental: as §1

TNF-α = test: Cytokine inhibition in PHA-stimulated primary human PBMCs: TNF-α; details: PBMCs stimulated with PHA; for IC50: Homo sapiens, PBMC, ELISA
Experimental: as §1

GM-CSF = test: Cytokine inhibition in PHA-stimulated primary human PBMCs: GM-CSF; details: PBMCs stimulated with PHA; for IC50: Homo sapiens, PBMC, ELISA
Experimental: as §1

IL-5 = test: Cytokine inhibition in PHA-stimulated primary human PBMCs: IL-5; details: PBMCs stimulated with PHA; for IC50: Homo sapiens, PBMC, ELISA
Experimental: as §1

INF-γ = test: Cytokine inhibition in PHA-stimulated primary human PBMCs: INF-γ; details: PBMCs stimulated with PHA; for IC50: Homo sapiens, PBMC, ELISA
Experimental: as §1

SMILES: CCOC(=O)CCC(=O)Nc1ccc(-n2c(C(F)(F)F)nc3cc(OC)ccc32)cc1 [Compound 125, N-[4-(2-trifluoromethyl-5-methoxy-benzoimidazol-1-yl)-phenyl]-succinamic acid ethyl ester]
- IC50 (IL-2 production; bins given with μM limit): > 1000 nM

SMILES: COc1ccc2c(c1)nc(C(F)(F)F)n2-c1ccc(NC(=O)c2cc(C(F)(F)F)ccc2C(F)(F)F)cc1 [Compound 127, 2,5-Di-(trifluoromethyl)-N-[4-(2-trifluoromethyl-5-methoxy-benzoimidazol-1-yl)-phenyl]-benzamide]
- IC50 (IL-2 production; bins given with μM limit): > 1000 nM

SMILES: COc1ccc2c(c1)nc(C(F)(F)F)n2-c1ccc(NC(=O)c2cc(C(F)(F)F)cc(C(F)(F)F)c2)cc1 [Compound 129, 3,5-Di-(trifluoromethyl)-N-[4-(2-trifluoromethyl-5-methoxy-benzoimidazol-1-yl)-phenyl]-benzamide]
- IC50 (IL-2 production; bins given with μM limit): > 1000 nM

SMILES: COc1ccc2c(c1)nc(C(F)(F)F)n2-c1ccc(NC(=O)Cc2ccc(OC)c(OC)c2)cc1 [Compound 131, 2-(3,4-dimethoxy-phenyl)-N-[4-(2-trifluoromethyl-5-methoxy-benzoimidazol-1-yl)-phenyl]-acetamide]
- IC50 (IL-2 production; bins given with μM limit): > 1000 nM

SMILES: CC(=O)Oc1ccc2c(c1)nc(C(F)(F)F)n2-c1ccc(NC(=O)c2cccc(F)c2F)cc1 [Compound 132, 2,3-Difluoro-N-[4-(2-trifluoromethyl-5-acetoxy-benzoimidazol-1-yl)-phenyl]-benzamide]
- IC50 (IL-2 production; bins given in nM): < 100 nM

SMILES: CC(=O)c1ccc2c(c1)nc(C(F)(F)F)n2-c1ccc(NC(=O)c2cccc(F)c2F)cc1 [Compound 133, 2,3-Difluoro-N-[4-(2-trifluoromethyl-5-acetyl-benzoimidazol-1-yl)-phenyl]-benzamide]
- IC50 (IL-2 production; bins given in nM): 100 to 500 nM

SMILES: COc1ccc2c(c1)nc(C(F)(F)F)n2-c1ccc(NCc2c(F)cccc2F)cc1 [Compound 135, 2,6-Difluoro-N-[4-(2-trifluoromethyl-5-methoxy-benzoimidazol-1-yl)-phenyl]-benzylamine, HCl salt]
- IC50 (IL-2 production; bins given in nM): < 100 nM
- IC50 (IL-10): 439 nM
- IC50 (IL-13): 25 nM
- IC50 (IL-4): 101 nM
- IC50 (IL-2): 3 nM
- IC50 (TNF-α): 47 nM
- IC50 (GM-CSF): 99 nM
- IC50 (IL-5): 13 nM
- IC50 (INF-γ): 29 nM

Now from value to compound, other results behind:

- IC50 (IL-2 production; bins given in nM): < 100 nM
- IC50 (IL-10): > 1000 nM
- IC50 (IL-13): 73 nM
- IC50 (IL-4): 651 nM
- IC50 (IL-2): 29 nM
- IC50 (TNF-α): 424 nM
- IC50 (GM-CSF): 788 nM
- IC50 (IL-5): 26 nM
- IC50 (INF-γ): 95 nM
SMILES: COc1ccc2c(c1)nc(C(F)(F)F)n2-c1ccc(NC(=O)c2c(F)ccc(F)c2F)cc1 [Compound 1, 2,3,6-Trifluoro-N-[4-(2-trifluoromethyl-5-methoxy-benzoimidazol-1-yl)-phenyl]-benzamide]

- IC50 (IL-2 production; bins given in nM): 100 to 500 nM
SMILES: COc1ccc2c(c1)nc(C(F)(F)F)n2-c1ccc(NC(=O)c2ccc3c(c2)OCO3)cc1 [Compound 75, Benzo[1,3]dioxole-5-carboxylic acid {N-[4-(2-trifluoromethyl-5-methoxy-benzoimidazol-1-yl)-phenyl]} amide]
- Inhibition of IL-13 (in words) (IL-13): potent inhibitors
- Inhibition of IL-4 (in words) (IL-4): potent inhibitors
- Inhibition of IL-2 (in words) (IL-2): potent inhibitors
- Inhibition of TNF-α (in words) (TNF-α): potent inhibitors
- Inhibition of GM-CSF (in words) (GM-CSF): potent inhibitors
- Inhibition of IL-5 (in words) (IL-5): potent inhibitors
- Inhibition of INF-γ (in words) (INF-γ): potent inhibitors

- IC50 (IL-2 production; bins given with μM limit): > 1000 nM
SMILES: COc1ccc2c(c1)nc(C(F)(F)F)n2-c1ccc(NC(=O)c2ccccc2Cl)cc1 [Compound 126, 2-Chloro-N-[4-(2-trifluoromethyl-5-methoxy-benzoimidazol-1-yl)-phenyl]-benzamide]

- IC50 (IL-2 production; bins given with μM limit): > 1000 nM
SMILES: COc1ccc2c(c1)nc(C(F)(F)F)n2-c1ccc(NC(=O)c2ccccc2OC)cc1 [Compound 128, 2-Methoxy-N-[4-(2-trifluoromethyl-5-methoxy-benzoimidazol-1-yl)-phenyl]-benzamide]

- IC50 (IL-2 production; bins given with μM limit): > 1000 nM
SMILES: COc1ccc(OC)c(C(=O)Nc2ccc(-n3c(C(F)(F)F)nc4cc(OC)ccc43)cc2)c1 [Compound 130, 2,5-Dimethoxy-N-[4-(2-trifluoromethyl-5-methoxy-benzoimidazol-1-yl)-phenyl]-benzamide]
